The record followed here is patent US9284303B2, “Benzimidazole cannabinoid agonists bearing a substituted heterocyclic group” (priority 2006, dated 2016).

Like-named read-outs stand apart in the source and are kept apart here.

For test [1], the target named is T1, human CB1 (hCB1) receptor (Homo sapiens, UniProt P21554).
T1 construct: expressed in transfected cells; host or cells: CHO-K1
The test is described as follows: Inhibition of forskolin-activated cAMP production upon activation of hCB1 (HTRF), CHO-K1 cells. Conditions: CB1 pEC50, hCB1-CHO-K1 cells, forskolin-activated cAMP, pEC50=-log(EC50). Type of test: cell-based. As for the experimental part: (§1) Functional activity of the test compounds was assessed by measuring their potency to inhibit forskolin-activated cAMP production upon activation of the human CB1 (hCB1) or human CB2 (hCB2) receptor through homogenous time resolved fluorescence (HTRF) assays.
CHO-K1 cells stably transfected with either hCB1 or hCB2 were grown up to 80-90% confluence in T175 Falcon flasks in DMEM/NUT MIX F-12 culture medium complemented with 2% Solution A (5.10^6 IU/l penicillin G, 5 g/l streptomycin sulphate, 5.5 g/l pyruvate, 14.6 g/l L-glutamine, 1M NaOH) and 10% foetal calf serum. Before the experiments, medium was removed, cells were washed with PBS/EDTA (140 mM NaCl, 1 mM Naz-EDTA, 8 mM Na2HPO4.2H2O, 8.5 mM KH2PO4, 2.7 mM KCl, 21 mM glucose), resuspended in stimulation buffer (HBSS 1x, IBMX 1 mM, Hepes 5 mM, MgCl2 10 mM, BSA 0.1%, pH 7.4). Cells were diluted to a concentration of 8.10^5 cell/ml for hCB1 experiments and 10^6 cells/ml for hCB2 experiments. Assays were performed using the cAMP Dynamic HTRF kit (CIS bio international, France) according to the recommendations of the manufacturer.
For CB1, each well of a 96 flat bottom black polystyrene assay plate (Costar) was filled with 25 μl stimulation buffer containing 6 μM forskolin and either test compound (in 2% DMSO), 2% DMSO or 2 μM CP55490 (in 2% DMSO). Then, 25 μl of the diluted cells was added (20,000 cells/well). After 30 minutes incubation in dark at room temperature, 25 μl cAMP-XL665 and 25 μl anti-cAMP cryptate (both at a final dilution of 1/80) was added to the cells.
After equilibration of the reaction mixtures for 1 to 24 hours in dark at room temperature, fluorescence was measured at 665 nm and 620 nm using a Discovery microplate fluorescence counter (Perkin Elmer), and the signal ratio of 665 nm/620 nm was calculated. The signal ratios of the test compounds were expressed relative to the signal ratios of the DMSO control (maximal signal ratio, no inhibition of cAMP) and CP55490 or WIN55212-2 for hCB1 and hCB2, respectively (minimal signal ratio, maximal inhibition of cAMP). From the dose response curves generated for each test compound, the dose at which 50% of the maximal inhibition of cAMP level is observed (EC50, expressed in the Tables as pEC50=−log(EC50) values) and the level of inhibition reached with 10 μM of the test compound compared to CP55490 (for hCB1) or WIN55212-2 (for hCB2) was calculated.
In general terms: Cyclic AMP is a second messenger, typically raised through Gs and lowered through Gi signalling.

Test [2] concerns the target T2, human CB2 (hCB2) receptor (Homo sapiens, UniProt P34972).
T2 construct: expressed in transfected cells; host or cells: CHO-K1
The test is described as follows: Inhibition of forskolin-activated cAMP production upon activation of hCB2 (HTRF), CHO-K1 cells. The conditions noted are these: for EC50: forskolin-activated cAMP, pEC50=-log(EC50); for ratio CB2 agonism over CB1 agonism: Table C-1, selectivity hCB2 over hCB1; for ratio CB2 over CB1 agonism: Table C-3, comparison of art compounds A to E with compounds of the invention. It is filed as cell-based. As for the experimental part:
as §1
Before the experiments, medium was removed, cells were washed with PBS/EDTA (140 mM NaCl, 1 mM Naz-EDTA, 8 mM Na2HPO4.2H2O, 8.5 mM KH2PO4, 2.7 mM KCl, 21 mM glucose), resuspended in stimulation buffer (HBSS 1x, IBMX 1 mM, Hepes 5 mM, MgCl2 10 mM, BSA 0.1%, pH 7.4). Cells were diluted to a concentration of 8.10^5 cell/ml for hCB1 experiments and 10^6 cells/ml for hCB2 experiments. Assays were performed using the cAMP Dynamic HTRF kit (CIS bio international, France) according to the recommendations of the manufacturer.
Then, 20 μl of the diluted hCB2-CHO-K1 cells was added (20,000 cells/well). After 30 minutes incubation in dark at room temperature, 10 μl cAMP-XL665 and 10 μl anti-cAMP cryptate (both at a final dilution of 1/100) was added to the cells.

[3] abbreviates: hCB2-CHO-K1 cells, read-out: CB2 pEC50 (converted).

T2 sequence (P34972 whole entry): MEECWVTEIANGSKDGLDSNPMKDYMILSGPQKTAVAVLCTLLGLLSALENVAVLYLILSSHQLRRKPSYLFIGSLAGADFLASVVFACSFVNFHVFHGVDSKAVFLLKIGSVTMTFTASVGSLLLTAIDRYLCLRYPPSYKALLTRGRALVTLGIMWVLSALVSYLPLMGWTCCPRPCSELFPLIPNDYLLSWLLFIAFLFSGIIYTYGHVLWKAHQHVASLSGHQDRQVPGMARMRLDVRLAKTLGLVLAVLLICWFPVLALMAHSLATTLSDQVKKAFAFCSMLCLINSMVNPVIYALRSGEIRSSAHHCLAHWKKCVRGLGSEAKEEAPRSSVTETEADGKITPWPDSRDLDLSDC
T1 sequence (P21554 whole entry): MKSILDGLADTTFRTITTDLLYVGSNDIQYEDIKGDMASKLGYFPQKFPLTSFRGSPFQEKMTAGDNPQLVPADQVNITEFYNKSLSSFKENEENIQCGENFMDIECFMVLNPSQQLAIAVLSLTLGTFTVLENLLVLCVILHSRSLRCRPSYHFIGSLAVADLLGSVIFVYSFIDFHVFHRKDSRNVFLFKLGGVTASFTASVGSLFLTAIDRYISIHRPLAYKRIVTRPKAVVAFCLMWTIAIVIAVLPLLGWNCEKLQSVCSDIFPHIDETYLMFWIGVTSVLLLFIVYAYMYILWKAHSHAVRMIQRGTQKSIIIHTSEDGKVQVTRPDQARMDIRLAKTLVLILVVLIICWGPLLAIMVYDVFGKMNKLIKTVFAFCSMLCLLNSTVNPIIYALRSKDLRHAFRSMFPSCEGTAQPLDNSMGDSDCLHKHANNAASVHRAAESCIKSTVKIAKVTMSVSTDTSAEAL

For the compound `CC(C)(C)c1nc2cc([S+]([O-])c3cc[n+]([O-])cc3)ccc2n1CC1CCOCC1` (stereo not shown) [Co. No. 2], the EC50 in test [1] was over 10000 nM; in test [2] (setting [3]), 38 nM.
Turning to `CCOc1cc(S(=O)(=O)c2ccc3c(c2)nc(C(C)(C)C)n3CC2CCOCC2)ccn1` [Co. No. 9], the EC50 in test [1] was 1410 nM. Besides, in test [2], the “ratio CB2 agonism over CB1 agonism” value was determined as 4266 and the “ratio CB2 over CB1 agonism” value was determined as 4266. Further, in test [2] (setting [3]), the EC50 is 0.331 nM.
`Cc1cc(S(=O)(=O)c2ccc3c(c2)nc(C(C)(C)C)n3CC2CCOCC2)ccn1` [Co. No. 13]: the EC50 in test [1] is 2040 nM; in test [2] (setting [3]), 1.26 nM. In addition, the “ratio CB2 agonism over CB1 agonism” value in test [2] is 1622.
For the compound `CC(C)(C)c1nc2cc(S(=O)(=O)c3ccnc(OC(F)F)c3)ccc2n1CC1CCOCC1` [Co. No. 14], in test [1], the EC50 is 3800 nM. Besides, in test [2], the “ratio CB2 agonism over CB1 agonism” value is recorded as 4898 and the “ratio CB2 over CB1 agonism” value is listed as 4898. For the same compound, the EC50 in test [2] (setting [3]) is 0.776 nM.
On to `Cc1noc(C)c1S(=O)(=O)c1ccc2c(c1)nc(C(C)(C)C)n2CC1CCOCC1` [Co. No. 15], for which the figures for the EC50 in test [1] and in test [2] (setting [3]) were 575 nM and 1.05 nM, respectively. Moreover, the “ratio CB2 agonism over CB1 agonism” value in test [2] is reported as 556.
`CC(C)(C)c1nc2cc(S(=O)(=O)c3ccnc(F)c3)ccc2n1CC1CCOCC1` [Co. No. 25]: the EC50 is 407 nM in test [1] and 0.813 nM in test [2] (setting [3]). The “ratio CB2 agonism over CB1 agonism” value in test [2] is 495. In addition, in test [2], the “ratio CB2 over CB1 agonism” value amounted to 495.
As for `CCC(C)(C)c1nc2cc(S(=O)(=O)c3ccc(OC)nn3)ccc2n1CC1CCC1` [Co. No. 26], the EC50 in test [1] was 537 nM; in test [2] (setting [3]), 0.794 nM. In addition, in test [2], the “ratio CB2 agonism over CB1 agonism” value turned out to be 676.
On the same counts, the results for `CC(C)(C)c1nc2cc([S+]([O-])c3ccc(Cl)nn3)ccc2n1CC1CCOCC1` (stereo not shown) [Co. No. 31] are 427 nM, 1.2 nM and 353.
On the same counts, the results for `CC(=O)c1ccc([S+]([O-])c2ccc3c(c2)nc(C(C)(C)C)n3CC2CCOCC2)nc1` (stereo not shown) [Co. No. 32] are 7590 nM, 2.57 nM and 2951.
In the case of `CC(C)(C)c1nc2cc(S(=O)(=O)c3ccc(C(N)=O)cn3)ccc2n1CC1CCOCC1` [Co. No. 33], the EC50 in test [1] was 5750 nM; in test [2] (setting [3]), 3.09 nM. Moreover, the “ratio CB2 agonism over CB1 agonism” value in test [2] is listed as 1884.
Take `CC(C)(C)c1nc2cc(S(=O)(=O)c3ccc[n+]([O-])c3)ccc2n1CC1CCOCC1` [Co. No. 34]: the EC50 in test [1] was 7410 nM; in test [2] (CB2 pEC50, hCB2-CHO-K1 cells), 1.58 nM. Moreover, the “ratio CB2 agonism over CB1 agonism” value in test [2] turned out to be 4732.
Regarding `COC(=O)c1ccc(S(=O)(=O)c2ccc3c(c2)nc(C(C)(C)C)n3CC2CCCCC2)nc1` [Co. No. 35], the EC50 in test [1] was 32.4 nM; in test [2] (setting [3]), 0.407 nM. Also, the “ratio CB2 agonism over CB1 agonism” value in test [2] was 79.
In the same order, the values of `CC(C)(C)c1nc2cc(S(=O)(=O)c3ccc(C(=O)N4CCCC4)cn3)ccc2n1CC1CCCCC1` [Co. No. 38] are over 10000 nM, 2.75 nM and over 3631.
In the same order, the values of `CC(C)(C)c1nc2cc(S(=O)(=O)c3ccc(O)nc3)ccc2n1CC1CCCCC1` [Co. No. 39] are 2040 nM, 1.7 nM and 1216.
In the same order, the values of `CC(C)(C)c1nc2cc(S(=O)(=O)c3ccc(C(=O)O)cn3)ccc2n1CC1CCCCC1` [Co. No. 46] are 3890 nM, 1.05 nM and 3758.
As to `CC(C)(C)c1nc2cc(S(=O)(=O)c3ccc(S(N)(=O)=O)s3)ccc2n1CC1CCOCC1` [Co. No. 47], the EC50 in test [1] was 1480 nM; in test [2] (setting [3]), 1.7 nM. Besides, the “ratio CB2 agonism over CB1 agonism” value in test [2] is reported as 871.
In the case of `COc1ccc(S(=O)(=O)c2ccc3c(c2)nc(C(C)(C)C)n3CC2CCOCC2)cn1` [Co. No. 54], the figures for the EC50 in test [1] and in test [2] (setting [3]) were 123 nM and 0.933 nM, respectively. For the same compound, in test [2] (listed as 54), the “ratio CB2 agonism over CB1 agonism” value is listed as 133.
Regarding `CC(C)(C)c1nc2cc(S(=O)(=O)c3ccc(S(C)(=O)=O)s3)ccc2n1CC1CCOCC1` [Co. No. 58], the values for the EC50 in test [1] and in test [2] (setting [3]) were 1820 nM and 0.832 nM, respectively. Further, the “ratio CB2 agonism over CB1 agonism” value in test [2] (listed as 58) is 2188.
On to `CC(C)(C)c1nc2cc(S(=O)(=O)c3ncc(C(F)(F)F)cc3Cl)ccc2n1CC1CCOCC1` [Co. No. 61], for which the figures for the EC50 in test [1] and in test [2] (setting [3]) were 151 nM and 1.12 nM, respectively. Moreover, in test [2], the “ratio CB2 agonism over CB1 agonism” value is 135.
In the case of `CC(C)(C)c1nc2cc(S(=O)(=O)c3sc(S(C)(=O)=O)cc3Br)ccc2n1CC1CCOCC1` [Co. No. 63], the EC50 in test [1] is 2820 nM; in test [2] (setting [3]), 0.977 nM. Besides, in test [2] (listed as 63), the “ratio CB2 agonism over CB1 agonism” value is given as 2818.
As for `CC(C)(C)c1nc2cc(S(=O)(=O)c3sc(S(C)(=O)=O)cc3Br)ccc2n1CC1CCOCC1` [Co. No. 64], the EC50 in test [1] was 1860 nM; in test [2] (CB2 pEC50, hCB2-CHO-K1 cells), 0.479 nM. Further, the “ratio CB2 agonism over CB1 agonism” value in test [2] (listed as 64) is on record as 3920.
As to `COc1cc(S(=O)(=O)c2ccc3c(c2)nc(C(C)(C)C)n3CC2CCOCC2)ccn1` [Co. No. 70], the EC50 in test [1] is 1410 nM; in test [2] (setting [3]), 0.55 nM. The “ratio CB2 agonism over CB1 agonism” value in test [2] is on record as 2570.
With `CC(C)(C)c1nc2cc(S(=O)(=O)c3ccc(C(=O)N4CCCC4)o3)ccc2n1CC1CCOCC1` [Co. No. 74], the figures for the EC50 in test [1] and in test [2] (setting [3]) were 2090 nM and 3.16 nM, respectively. For the same compound, the “ratio CB2 agonism over CB1 agonism” value in test [2] is 668.
Turning to `CC(C)(C)c1nc2cc(S(=O)(=O)c3ncc(S(C)(=O)=O)cc3Br)ccc2n1CC1CCOCC1` [Co. No. 76], the EC50 in test [1] was over 10000 nM; in test [2] (setting [3]), 12 nM. Besides, in test [2], the “ratio CB2 agonism over CB1 agonism” value was over 832.
On the same counts, the results for `CC(C)(C)c1nc2cc(S(=O)(=O)c3cc(S(C)(=O)=O)cnc3O)ccc2n1CC1CCOCC1` [Co. No. 77] are 2570 nM, 1.95 nM and 1303.
On to `COc1ncc(S(C)(=O)=O)cc1S(=O)(=O)c1ccc2c(c1)nc(C(C)(C)C)n2CC1CCOCC1` [Co. No. 78], for which the EC50 is over 10000 nM in test [1] and 7.24 nM in test [2] (setting [3]). The “ratio CB2 agonism over CB1 agonism” value in test [2] is on record as over 1380.
`CC(C)(C)c1nc2cc(S(=O)(=O)c3ccncc3)ccc2n1CC1CCOCC1` [Co. No. A, reference compound]: the “ratio CB2 over CB1 agonism” value in test [2] turned out to be 215.
Take `CC(C)(C)c1nc2cc(S(=O)(=O)c3cccnc3)ccc2n1CC1CCOCC1` [Co. No. B, reference compound]: in test [2], the “ratio CB2 over CB1 agonism” value is listed as 30.
For the compound `CC(C)(C)c1nc2cc(S(=O)(=O)c3ccccn3)ccc2n1CC1CCOCC1` [Co. No. C, reference compound], the “ratio CB2 over CB1 agonism” value in test [2] is recorded as 36.
As for `CC(C)(C)c1nc2cc(S(=O)(=O)c3ccoc3)ccc2n1CC1CCOCC1` [Co. No. D, reference compound], the “ratio CB2 over CB1 agonism” value in test [2] was determined as 26.
Regarding `CC(C)(C)Cc1nc2cc(S(=O)(=O)c3ccncc3)ccc2n1CC1CCOCC1` [Co. No. E, reference compound], the “ratio CB2 over CB1 agonism” value in test [2] worked out at 219.
